Laboratory results as given in PMC6201930 (PLoS ONE, 2018).
“And” between values parts separate entries of the source, which are not always exact repeats. Identical values can stand only once. Like-named read-outs stand apart in the source and are kept apart here.

How the values were obtained:
[1] = tested on: fLuc mRNA harboring a UGA nonsense mutation at codon 190 (fLuc-190-NS); type: biochemical, rabbit
[2] = Pharmacokinetics of aminoglycosides in the rat; details: sc, 10 mg/kg
Method: Test compounds were dissolved in PBS at 1 mg/mL and administered subcutaneously in a volume of 10 mL/kg to deliver a dose of 10 mg/kg. […] At 24 hours, the rat was euthanized and in addition to blood, quadriceps and kidney tissues were collected for subsequent analysis.
Blood was collected into tubes containing dipotassium ethylenediaminetetraacetic acid (K2 EDTA) as the anticoagulant and rotated at room temperature until the blood was centrifuged and the plasma recovered for subsequent analysis by liquid chromatography with tandem mass spectroscopy (LC-MS/MS). Noncompartmental toxicokinetic parameters were determined using Phoenix WinNonLin version 6.1 (Pharsight Corporation, Carey NC).
The concentrations of test compound in plasma, kidney and muscle were quantified by liquid chromatography-tandem mass spectrometry (LC-MS/MS). Briefly, the plasma and tissue homogenate samples were treated with acetonitrile-methanol mixture containing an internal standard that is a close analog of the test compounds. The treated plasma and […] homogenate samples were centrifuged and the supernatant was collected and analyzed using electro-spray LC-MS/MS.

[3] = tested on: zebrafish neuromasts (hair cells); experiment: Neuromast toxicity assay (DASPEI staining); details: read-out: Neuromast CC50; individual determinations (S1 File)
Method: All neuromast cytotoxicity assays were done at Biobide–BBD Biophenix SL (Gipuzkoa, Spain). […] Compounds were tested at 5 doses. After 24 hours of exposure embryos were incubated in DASPEI (2-(4-(dimethylamino)styryl) -N-Ethylpyridinium Iodide) for neuromast staining. Images of each embryo were taken and neuromasts counted. A compound was classified as ototoxic when the number of neuromasts in the treated group was less than that in the untreated control group (One Way ANOVA, multiple comparisons vs. vehicle).

[4] = tested on: tGFP-CFTR542X-HA-HIS construct (codon 542 UGA) in 293H cells; experiment: tGFP-542X readthrough assay (HA-HIS MSD immunoassay); type: cell-based, human
[5] = Cytotoxicity in myoblasts; details: mouse
Description: (§1) When considering compounds for potential readthrough therapy it is important to monitor cellular and animal safety. In order to determine the most promising compounds to further evaluate in in vivo safety, we measured cytotoxicity in two different cell types. We used activated human peripheral blood mononuclear cells (PBMCs) (Table 2 and Fig 2D and 2E). PBMCs are a primary cell that when activated with phytohaemagglutinin (PHA) expand quickly and are commonly used as an in vitro surrogate for rapidly growing cells in the human body to evaluate cytotoxicity. Prior to advancing compounds into human studies, safety evaluation in rodents is performed. As an in vitro surrogate for rodent toxicity, we used primary mouse myoblasts.

[6] = Cytotoxicity in stimulated PBMCs (CellTitre-Glo ATP); details: human
Description: as §1
(§2) Frozen human Peripheral Blood Mononuclear Cells (PBMCs) were obtained from […] (Alameda, CA, Cat# PB003F) from a single donor. […] Plates were incubated at 37°C with 5% CO2 for 4 hours prior to compound treatment. Compounds were serially diluted and added to the plates. Plates were incubated at 37°C, 5% CO2 incubator, for 72 hours prior to determinations of ATP levels. Cell viability was determined using a chemiluminescent assay to monitor adenosine triphosphate (ATP) levels in live cells (CellTitre-Glo; CTG; Promega, Cat#G7571). Methods were performed per the manufacturer’s instructions.

[7] = tested on: activated human peripheral blood mononuclear cells (PBMCs); experiment: as above; details: for CC50: read-out: Stimulated PBMC CC50, individual determinations (S1 File)
Description: as §1, §2

[8] = AVERAGE (S1 File), unit not given for EC5X
[9] = individual experiments (S1 File)
[10] = individual experiments (S1 File), unit not printed for EC5X (EC2X of the sheet in uM)
[11] = maximum readthrough above background, average ± SD
[12] = Stimulated PBMC (CC50), PHA/IL-2 stimulated, 72 hours, average ± SD
[13] = Stimulated PBMC CC50, AVERAGE (S1 File)

SMILES | fLuc-190-NS EC2X ([1]; AVERAGE (S1 File)) [µM] | fLuc-190-NS MaxFold ([1]; AVERAGE (S1 File)) | fLuc-190-NS EC5X [1, 8] | fLuc-190-NS EC2X ([1]; cell-free, average ± SD) [µM] | fLuc-190-NS MaxFold ([1]; cell-free, average ± SD) [fold] | fLuc-190-NS EC2X [1, 9] | fLuc-190-NS MaxFold [1, 9] | fLuc-190-NS EC5X [1, 10] | CC50 [3] | tGFP-542X EC2X ([4]; AVERAGE (S1 File)) [µM] | tGFP-542X Maxfold ([4]; AVERAGE (S1 File)) | tGFP-542X EC5X [4, 8] | tGFP-542X EC2X [4, 9] | tGFP-542X Maxfold [4, 9] | tGFP-542X EC5X [4, 10] | tGFP-542X Maxfold [4, 11] [fold] | CC50 [7] | also measured
CN[C@@H]1[C@@H](O)[C@@H](O[C@@H]2[C@@H](O)[C@H](O[C@H]3O[C@H](CO)[C@@H](O)[C@H](O)[C@H]3N)[C@@H](N)C[C@H]2N)OC[C@]1(C)O (stereo in doubt) [Gentamicin X2, gentamicin X2] | 0.0288 | 195.3 | 0.0696 | 0.029 ± 0.009 | 195 ± 18 | 0.0300 µM and 0.0373 µM and 0.0192 µM | 193.99 and 177.60 and 214.25 | 0.0904 and 0.0449 and 0.0734 | 8.7 µM and 19 µM | 18.6 | 135.0 | 101.5 | 18.5 µM and 10.25 µM and 10.65 µM and 11.55 µM and 13.08 µM and 5.70 µM and 9.22 µM and 17.7 µM and 40.0 µM and 49.3 µM | 235 and 85 | 52 and 120 and 133 | 135 ± 87 | 2590 µM and 2630 µM and 2940 µM | concentration at 24 h ([2]; kidney): 7000 ± 1000 ng/g; AUC ([2]; plasma): 13000 ng·h/mL; AUC(0-t) ([2]; plasma): 13000 ng·h/mL; Cmax ([2]; plasma): 5600 ng/mL; Tmax ([2]; plasma): 0.5 h; concentration at 24 h ([2]; plasma): ≤ 1 ng/g; half-life ([2]; plasma): 2.6 h; concentration at 24 h ([2]; quadriceps): ~40 ng/g; CC50 ([5]; primary mouse myoblasts, Myoblast (CC50), average ± SD): 834 ± 623 µM; CC50 ([5]; primary mouse myoblasts, Myoblast CC50, AVERAGE (S1 File)): 834 µM; CC50 at 72 h [6, 12]: 2970 ± 533 µM; CC50 at 72 h [6, 13]: 2970 µM; CC50 at 72 h ([6]; Stimulated PBMC CC50, individual determinations (S1 File)): 3740 µM; safety window (average CC50 / average EC2X) ([7]; PBMCs, compared with NB84, NB124 or G418, 95% confidence limits): statistically better safety window
CN[C@@H]1[C@@H](O)[C@@H](O[C@@H]2[C@@H](O)[C@H](O[C@H]3O[C@H]([C@@H](C)O)[C@@H](O)[C@H](O)[C@H]3N)[C@@H](N)C[C@H]2N)OC[C@]1(C)O [G418, reference compound] | 0.0064 | 53.0 | 0.0260 | 0.0064 ± 0.0002 | 53 ± 2 | 0.0067 µM and 0.0063 µM | 51.05 and 54.30 and 53.65 | 0.0261 and 0.0252 and 0.0267 | 3.6 µM | 9.0 | 318.3 | 24.8 | 8 µM and 15 µM and 5 µM | 373 and 420 and 226 and 255 | 22 and 18 and 33 and 27 | 318 ± 93 | 270 µM and 289 µM and 294 µM and 295 µM and 372 µM and 440 µM and 458 µM and 473 µM and 841 µM and 853 µM and 914 µM and 1060 µM | AUC ([2]; in vivo): 15000 ng·h/mL; AUC(0-t) ([2]; in vivo): 15000 ng·h/mL; Cmax ([2]; in vivo): 7400 ng/mL; Tmax ([2]; in vivo): 0.33 h; half-life ([2]; in vivo): 1.5 h; concentration at 24 h ([2]; in vivo, Kidney levels, 10 mg/kg subcutaneous, 24 hours post-dose, mean ± SD of three rats): 12000 ± 3000 ng/g; concentration at 24 h ([2]; in vivo, levels in the quadriceps, 10 mg/kg subcutaneous, 24 hours after dosing): ~40 ng/g; concentration at 24 h ([2]; in vivo, plasma levels, 10 mg/kg subcutaneous, 24 hours after dosing, at or below lower limit of quantification): ≤ 1 ng/g; tGFP-542X EC2X ([4]; 293H cells, 24 hours, average ± SD): 9 ± 4 µM; CC50 ([5]; Myoblast (CC50), average ± SD): 166 ± 100 µM; CC50 ([5]; Myoblast CC50, AVERAGE (S1 File)): 166 µM; CC50 [6, 12]: 546 ± 286 µM; CC50 [6, 13]: 546 µM
